Measured values published in patent US10046022B2, “Synthetic peptide that increases radiosensitivity of tumor cells and use of same” (TOAGOSEI CO., LTD., priority 2015, dated 2018).
Peptide text beside a SMILES is read from it.

Tested on: HeLaS3 cells
Experiment: Radiosensitizing activity: cell survival rate (Cell Counting Kit-8, WST-8) of HeLaS3 cells after peptide and X-ray irradiation
Format: cell-based, human
Conditions: peptide 50 μM, X-ray dose 0 Gy, compared with 0 μM peptide
Experimental: Radiosensitizing activity of the radiosensitizing synthetic peptide (Sample 1) obtained in Example 1 was evaluated by measuring cell survival rates during culturing after having irradiated test cells supplied with the radiosensitizing synthetic peptide with radiation (here, X-rays).
Human carcinoma-derived cells (HeLaS3 cells) and cells derived from normal human tissue (CCD-1079Sk cells) were used for the test cells. […] Details of the evaluation test are as indicated below.
First, a cultured cell line derived from human cervical cancer in the form of HeLaS3 cells (ATCC™ CCL2.2) were prepared for use as test cells derived from a human tumor. […]
Next, at the point 48 hours had elapsed following X-ray irradiation, the viability of the test cells (the number of viable cells) was measured using a commercially available chromogenic assay kit (Cell Counting Kit-8, Dojindo Molecular Technologies, Inc.). Namely, the number of viable cells was measured by colorimetry by quantifying the amount of water-soluble formazan in the medium by measuring using absorption spectrophotometry (measuring wavelength: 450 nm, reference wavelength: 650 nm) based on the principle that the tetrazolium salt in the reagent is reduced by enzyme activity of viable cells resulting in the formation of water-soluble formazan. […]

N=C(N)NCCC[C@H](NC(=O)[C@H](CCCNC(=N)N)NC(=O)[C@H](CO)NC(=O)[C@H](CCCCN)NC(=O)[C@H](CO)NC(=O)[C@H](CCCCN)NC(=O)[C@@H](N)CS)C(=O)N[C@@H](CO)C(=O)N[C@@H](CS)C(=O)O [Sample 1, CKSKSRRSC] (H-CKSKSRRSC-OH)
cell survivability, Test Group 1 in comparison with Test Group 2 (cytotoxicity attributable to the peptide): slightly lower
